Holding throughout (assay): NCI-60 cell line screen, 48 h
For experiment [1], the system named is NCI-H522.
Experiment [2] has as its system NCI-H460.
Experiment [3] has as its system OVCAR-5.
Experiment [4] concerns HOP-62.
Experiment [5] has as its system UACC-62.
Experiment [6] has as its system 786-0.
Experiment [7] concerns SW-620.
The test system of experiment [8] is SNB-75.
Experiment [9] deals with HCT-15.
Experiment [10] relates to A549.
Experiment [11] relates to SR.
The subject of experiment [12] is NCI-H226.
The test system of experiment [13] is SF-295.
Experiment [14] deals with Malme-3M.
Experiment [15] concerns OVCAR-8.
Experiment [16] concerns DMS-273.
For experiment [17], the system named is SNB-19.
Experiment [18] deals with UO-31.

Structures are written as SMILES.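 Method: 48-hour compound exposure of cells in 96-well plates, five concentrations, linear interpolation of endpoints. GI50 marks 50% less growth.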 Calls of active or inactive are those of the source. No stated cut-off is given here; in the data, active = GI50 up to about 1.1 µM and inactive = higher.

Take `CC(/C=C/C(=O)c1sc(-n2nc(-c3ccccc3)cc2-c2ccccc2)nc1C)=C\c1ccccc1`: the GI50 in experiment [1] was 19 µM (inactive); in [2] it was 52.7 µM (inactive); in [3], > 10 µM (inactive); in experiment [4], > 10 µM (inactive); in [5], 40.5 µM (inactive); in experiment [6], 96.4 µM (inactive). Moreover, the GI50 in [7] is > 10 µM (inactive); in experiment [8] it was 2.02 µM (inactive); in [9], 19.2 µM; in experiment [10], 38.8 µM (inactive); in experiment [11] it was 27.2 µM (inactive); in [12], > 10 µM (inactive). The GI50 in experiment [13] is > 10 µM (inactive); in experiment [14], 35.8 µM (inactive); in experiment [15], 17.5 µM (inactive); in [16] it was > 10 µM (inactive); in [17], 64.3 µM (inactive); in experiment [18], 24 µM (inactive).

Consider `CC(C)N(C(=O)C12C3C4C5(C#N)C3C1(C#N)C5C42I)C(C)C` (stereo unspecified), for which the GI50 is > 33.7 µM (inactive) in [1]; > 53.6 µM (inactive) in experiment [2]; > 100 µM (inactive) in experiment [3]; > 100 µM (inactive) in experiment [4]; > 100 µM (inactive) in experiment [5]; > 100 µM (inactive) in experiment [6]. The GI50 was > 41.4 µM (inactive) in experiment [7]; > 59 µM (inactive) in experiment [8]; greater than 78.5 µM in experiment [9]; > 59 µM (inactive) in experiment [10]; 13.4 µM (inactive) in experiment [11]; > 100 µM (inactive) in experiment [12]. Besides, the GI50 is > 100 µM (inactive) in [13]; > 100 µM (inactive) in experiment [14]; > 85.5 µM (inactive) in experiment [15]; > 43.4 µM (inactive) in experiment [16]; > 100 µM (inactive) in experiment [17]; > 100 µM (inactive) in experiment [18].

Take `CCN(c1ccc(Br)cc1)c1c(Br)c(=O)nc2ccccn12`: the GI50 in [1] was 62.2 µM (inactive); in experiment [2], > 100 µM (inactive); in experiment [3], > 100 µM (inactive); in experiment [4], > 100 µM (inactive); in experiment [5], 65 µM (inactive); in [6] it was > 100 µM (inactive). Moreover, the GI50 in experiment [7] was > 100 µM (inactive); in [8], > 100 µM (inactive); in experiment [9] it was 99.1 µM; in experiment [10], > 100 µM (inactive); in [11] it was > 100 µM (inactive); in [12] it was > 100 µM (inactive). The GI50 is 64.9 µM (inactive) in experiment [14]; > 100 µM (inactive) in [15]; 83.2 µM (inactive) in [16]; > 100 µM (inactive) in experiment [17]; 35.7 µM (inactive) in [18].

As for `CN(C)C(=S)/N=c1\sn(C)/c(=N\C(=S)N(C)C)n1C`, the GI50 in experiment [1] was 29.4 µM (inactive); in experiment [2] it was 50.6 µM (inactive); in experiment [3] it was > 100 µM (inactive); in experiment [4], > 100 µM (inactive); in experiment [5], 32.2 µM (inactive); in experiment [6], > 100 µM (inactive). In addition, the GI50 is > 100 µM (inactive) in experiment [7]; > 100 µM (inactive) in [8]; greater than 100 µM in experiment [9]; 82.8 µM (inactive) in experiment [10]; > 100 µM (inactive) in experiment [11]; > 100 µM (inactive) in experiment [12]. For the same compound, the GI50 in [13] was > 100 µM (inactive); in [14] it was 19.5 µM (inactive); in experiment [15], > 100 µM (inactive); in [16], 36.7 µM (inactive); in experiment [17] it was > 100 µM (inactive); in [18], > 100 µM (inactive).

The values are drawn from ChEMBL document CHEMBL1201862, “PubChem BioAssay data set” (2004).
